# Paper PMC7956625, “Optimization and Anti-Cancer Properties of Fluoromethylketones as Covalent Inhibitors for Ubiquitin C-Terminal Hydrolase L1” (Molecules, 2021)
# Numbering of substitutions follows the chain as printed.
# Assays:
# [1] = target: T1, UCHL1 (Homo sapiens, UniProt P09936); assay: SW1271 cell activity-based probe target engagement assay
# T1 sequence (P09936 1-223): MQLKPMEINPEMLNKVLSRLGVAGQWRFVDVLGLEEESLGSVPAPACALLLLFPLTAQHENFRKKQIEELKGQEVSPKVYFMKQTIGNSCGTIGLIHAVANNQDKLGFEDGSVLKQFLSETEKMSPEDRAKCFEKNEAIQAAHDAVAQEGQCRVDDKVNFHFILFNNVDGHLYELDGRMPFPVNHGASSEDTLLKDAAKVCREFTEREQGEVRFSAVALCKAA
# Method: UCHL1 is a key promoter of cell invasion and metastasis in small cell lung cancer but not necessarily required for cell viability or proliferation. Thus, we chose to assess the efficacy of targeting UCHL1 using the SW1271 small cell lung cancer cell line. […] The Ub-ABP assay was used to confirm on target engagement of UCHL1 within these cells.
# […] Cell pellets were thawed on ice before resuspending in 200 µL lysis buffer (50 mM Tris pH 7.6, 150 mM NaCl, 5 mM MgCl2, 0.5 mM EDTA, 5 mM DTT, 2 mM ATP, 0.5% NP-40, 10% v/v glycerol) and incubating on ice for 30 min with vigorous vortexing every 10 min. Cell lysate was clarified by centrifugation (17,000× g for 10 min) and the supernatant was collected, and the concentration was determined by Bradford (performed according to manufacturer’s protocol). Cells were normalized to 2 mg mL^−1. To each reaction mixture was added 36 µL of lysate and 2 µL of HA-Ub-VME or lysis buffer. This was incubated for 30 min at room temperature before quenching with 15 µL of 4X Laemmli buffer and heating to 95 °C for 5 min. Samples were subjected to SDS-PAGE and immunoblot.
# [2] = system: SW1271 cells; assay: Click reaction and in-gel fluorescence of treated SW1271 cells; assay type: cell-based; conditions: 100 µM, 4 h
# Method: Leveraging the alkyne handle, a click reaction was performed with an azide containing sulfo-cyanine5 fluorophore (Cy5) to visualize proteins within the cells that were conjugated to either the fluoromethylketone 34 or the chloromethylketone 37. Cells were pretreated with either analog then harvested and washed to removed unreacted inhibitor. The cells were then lysed and the click reaction was performed on lysates. […] Further evaluation using proteomic profiling is warranted to gain a quantitative understanding on the potential for non-specificity at off-target cysteines.
# Cells were treated with 100 µM inhibitor or DMSO for 4 h before being washed, scraped, and lysed in 200 µL of lysis buffer (1× PBS, 1% v/v Triton X-100, 0.1% w/v SDS, 1X HALT) for 30 min on ice with vigorous vortexing every 10 min. Samples were then pelleted at 17,000× g for 10 min before collecting the supernatant and measuring concentration using BCA. Samples were normalized to 2 mg/mL and stored at −80 °C overnight. The following day, samples were thawed. While thawing, a click cocktail was prepared (for each sample, the cocktail consists of: 3 µL of 1.7 mM THPTA in 1:4 tBuOH/DMSO, 1 µL of 50 mM CuSO4 in water, 1 µL of 1.25 mM Cy5-N3 in DMSO, and 1 µL of 50 mM TCEP in water freshly prepared). […] The samples were then analyzed by SDS-PAGE and imaged on a Licor Odyssey and subsequently Coomassie stained.
# [3] = target: T2, UCHL1 C90A (Homo sapiens, UniProt P09936, C90A); assay: Mass spectrometry analysis of 34 adducts on UCHL1; assay type: binding
# T2 construct: His (N); made in house
# T2 sequence (P09936 1-223 C90A): T1 sequence (P09936 1-223) with C90A
# Method: (§1) A common shortcoming to covalent inhibitors is that the reactive electrophilic groups may partake in non-specific labeling of off-target cysteines. To investigate if alternative cysteines are affected on UCHL1 we used analog 34 to confirm that the fluoromethylketone derivatives only conjugate Cys90. […] Additionally, samples were analyzed by mass spectrometry to increase sensitivity for detection of any non-Cys90 adducts. […]
# (§2) Solutions containing 10 µM recombinant UCHL1^WT or UCHL1^C90A (from pET15b) (49 µL) was incubated with either 10 µM or 20 µM inhibitor for 3 h at room temperature in PBS starting block buffer (Thermo Scientific # 37538). To quench reaction, chilled acetone was added to the sample to achieve an overall 80% acetone solution. After overnight storage at −20 °C, suspension was centrifuged at 14,000× g at 4 °C for 15 min. Supernatant was discarded, and pellet was dried by vacuum centrifugation for 1 h. Pellet was reconstituted in 50/50 water/acetonitrile with 0.1% formic acid. 25 pmol per sample was analyzed by LC/MS (Agilent 1260 Infinity II with a ZORBAX Rapid Resolution High Definition 300Å Stable Bond C3, 2.1 × 100 mm, 1.8 µm column) attached to an Agilent 6129 quadrupole mass spectrometer in positive ion mode.
# (§3) The column was held at 45 °C. Mobile solution A was 0.1% formic acid in water, and mobile phase B was 0.1% formic acid in acetonitrile. The gradient used was hold at 5% B for 5 min, increase linearly to […] for 10, and then hold at 95% B for 5 min. The mass data were collected at a range of 500–1000 m/z.
# (§4) Raw data were processed using MestReNova. For all samples, the deconvoluted mass was calculated with a charged state range from 27 to 36, m/z range of 670–900 Da, and deconvoluted mass range from 25,000–26,000 Da. […] For C90A mutant, this abundance threshold was lowered to 5% to detect the presence of any reacted protein. 34 adduct is expected to be +486.00 Da after displacement of fluorine.
# [4] = target: T3, WT-UCHL1 (Homo sapiens, UniProt P09936); assay: Mass spectrometry analysis of 34 adducts on UCHL1; assay type: binding; conditions: WT-UCHL1 + 34 (1:1)
# T3 construct: His (N); made in house
# T3 sequence (P09936 1-223): T1 sequence (P09936 1-223)
# Method: as §1, §2, §3, §4
smiles,measurement,setting,value
C#Cc1ccc(COC(=O)N[C@H](C(=O)N[C@@H](C)C(=O)N[C@@H](CCC(=O)OC)C(=O)CF)C(C)C)cc1 [Cpd 34],selectivity over other DUBs in SW1271 cells (HA blot),[1]; HA immunoblot,demonstrated selectivity over other DUBs
same,HA-Ub-VME complex formation with UCHL1 in SW1271 cells,"[1]; dose-response, UCHL1 immunoblot",inhibited HA-Ub-VME complex formation with UCHL1 in a dose-dependent manner
same,"proteins labelled in SW1271 cells (Cy5 click, in-gel fluorescence)",[2],high selectivity in cells
same,Adduct(s) Observed (Da),[3]; UCHL1 C90A + 34 (1:1),none
same,Adduct(s) Observed (Da),[3]; UCHL1 C90A + 34 (1:2),no adducts observed and none
same,Adduct(s) Observed (Da),[4],+486.00 Da
